“Also recorded” adds a separate entry of the source. Where a name gives a salt, the structure may show the parent alone. Read-outs that look alike come from different tables or passages of the source.
Assays:
TsGAR-2 [1] = biological target: T1, TsGAR-2 (Trichinella spiralis, UniProt E5SAZ1); assay: Aequorin calcium mobilization agonist assay in CHO-K1 cells expressing TsGAR-2; assay type: cell-based; conditions: for ACh-mediated calcium mobilization via TsGAR-2 (in words): Fig. 4
Source text: (§1) T. spiralis GARs were heterologously expressed in CHO–K1 cells (Sigma) along with the aequorin reporter—with or without the wild-type human G protein alpha 15 subunit (Gα15(16)) (cDNA Resource Center, Bloomsburg University of Pennsylvania)—to observe activation of the receptor by monitoring bioluminescence triggered by the mobilization of intracellular calcium ([Offermanns and Simon, 1995]; [Park et al., 2002]). Therefore, there were two types of transient expression: i) TsGAR-1, -2, or -3/aequorin/Gα15(16); and ii) TsGAR-1, -2, or -3/aequorin. The use of Gα15(16) in the first assay is due to its highly efficient way of linking calcium mobilization signaling pathways to GPCRs that are preferentially coupling with Gi/o or Gs protein members ([Offermanns and Simon, 1995]).
(§2) For handling cell lines, all transfection details, and monitoring receptor activities, we followed the previously published study ([Šimo et al., 2011], [2013]; [Mateos-Hernández et al., 2020]). Briefly, CHO–K1 cells were kept in growth medium (Ham's F12 Media with 10% fetal bovine serum) until 70% of confluence was reached. FuGENE® HD Transfection Reagent (Promega) was then used to transfect the plasmid constructs. Prior to the assay, the cells were pre-equilibrated with coelenterazine h (Promega) for 3 h at room temperature. The assay was performed in opaque 96-well microplates (Nunc) using either Fluostar Omega (BMG Labtech) or GloMax® Plate Reader (Promega). In agonist assays, 50 μL of various doses of agonistic ligands were added to wells in triplicate, followed by injection of 50μL/∼15,000 of CHO–K1 cells. Immediately after the cell injections, luminescence values were monitored for 25 s and their integrated values over time were normalized to the largest positive control response in each plate (45 μM ACh) after background noise was subtracted. When performing the antagonist assay, cells were pre-incubated with different doses of antagonistic ligands for 5 min in RT (in a 96-well plate) and subsequently a 50 μL of 10 μM ACh solution was injected into the wells. The changes in luminescence were measured for 25 s immediately after injecting ACh, and time integrated values were normalized to the response of those wells in each plate that only contained cells with medium. A dose-response curve was plotted afterwards for each data set and half-maximum response values (EC50 or IC50) along the Hill coefficient (nH) were calculated using GraphPad Prism 8.0 (GraphPad Software). Two and three biological replicates were performed for the testing of T. spiralis GARs with or without the Gα15(16) and agonistic or antagonistic assay, respectively, with three technical replicates for each ligand. In terms of negative controls, a mock transfection was performed using empty pcDNA3.1 (+) plasmid, with an aequorin reporter and Gα15(16) subunit. To confirm the specificity of T. spiralis GAR-1, -2, and -3 affinity, we tested dopamine, octopamine and norepinephrine chemical agents.

TsGAR-3 [2] = biological target: T2, TsGAR-3 (Trichinella spiralis, UniProt E5S5F5); assay: Aequorin calcium mobilization agonist assay in CHO-K1 cells expressing TsGAR-3; assay type: cell-based; conditions: for ACh-mediated calcium mobilization via TsGAR-3 (in words): Fig. 4
Source text: as §1, §2

TsGAR-1 [3] = biological target: T3, TsGAR-1 (Trichinella spiralis, UniProt A0A0V1C1R2); assay: Aequorin calcium mobilization agonist assay in CHO-K1 cells expressing TsGAR-1; assay type: cell-based; conditions: for ACh-mediated calcium mobilization via TsGAR-1 (in words): Fig. 4
Source text: as §1, §2

A. suum GAR-1 = tested on: A. suum GAR-1; design: method as in Kimber et al., 2009; conditions: ref Kimber et al., 2009; cited from earlier work
T. castaneum mAChR-B = tested on: T. castaneum mAChR-B; design: method as in Collin et al., 2013; conditions: ref Collin et al., 2013, cited from earlier work; for antagonist effect on T. castaneum mAChR-B (in words): same expression system as this study
D. melanogaster mAChR-B = tested on: D. melanogaster mAChR-B; design: method as in Collin et al., 2013; conditions: ref Collin et al., 2013, cited from earlier work; for antagonist effect on D. melanogaster mAChR-B (in words): same expression system as this study
C. elegans GAR-1 = tested on: C. elegans GAR-1; design: method as in Lee et al., 1999, Lee et al., 2000; conditions: ref Lee et al., 1999, Lee et al., 2000; cited from earlier work
TsGAR-3 [4] = biological target: T2, TsGAR-3; assay: Aequorin antagonist assay (block of 10 μM ACh response) in CHO-K1 cells expressing TsGAR-3; assay type: cell-based; conditions: for nH (Hill coefficient), antagonist, TsGAR-3 / antagonist effect on TsGAR-3 (in words): without Gα15(16)
Method: Therefore, there were two types of transient expression: i) TsGAR-1, -2, or -3/aequorin/Gα15(16); and ii) TsGAR-1, -2, or -3/aequorin.
as §2, with “Briefly,” for “For handling cell lines, all transfection details, and monitoring receptor activities, we followed the previously published study ([Šimo et al., 2011], [2013]; [Mateos-Hernández et al., 2020]). Briefly,”, “Immediately after the cell injections, luminescence values were monitored for 25 s and their integrated values over time were normalized to the largest positive control response in each plate (45 μM ACh) after background noise was subtracted.” left out

TsGAR-2 [5] = biological target: T1, TsGAR-2; assay: Aequorin antagonist assay (block of 10 μM ACh response) in CHO-K1 cells expressing TsGAR-2; assay type: cell-based; conditions: co-expressed with Gα15(16)
Source text: as §1, §2

TsGAR-1 [6] = biological target: T3, TsGAR-1; assay: Aequorin antagonist assay (block of 10 μM ACh response) in CHO-K1 cells expressing TsGAR-1; assay type: cell-based; conditions: co-expressed with Gα15(16)
Source text: as §1
as §2, with “In terms of negative controls, a mock transfection was performed using empty pcDNA3.1 (+) plasmid, with an aequorin reporter and Gα15(16) subunit. To confirm the specificity of T. spiralis GAR-1, -2, and -3 affinity, we tested dopamine, octopamine and norepinephrine chemical agents.” left out

C. elegans GAR-2 = tested on: C. elegans GAR-2; design: method as in Lee et al., 1999, Lee et al., 2000; conditions: ref Lee et al., 1999, Lee et al., 2000; cited from earlier work
[7] = agonist, co-expressed with Gα15(16)
[8] = expressed alone, without Gα15(16)
[9] = times lower sensitivity than mAChR-A

T1 sequence (E5SAZ1 entry or part of it): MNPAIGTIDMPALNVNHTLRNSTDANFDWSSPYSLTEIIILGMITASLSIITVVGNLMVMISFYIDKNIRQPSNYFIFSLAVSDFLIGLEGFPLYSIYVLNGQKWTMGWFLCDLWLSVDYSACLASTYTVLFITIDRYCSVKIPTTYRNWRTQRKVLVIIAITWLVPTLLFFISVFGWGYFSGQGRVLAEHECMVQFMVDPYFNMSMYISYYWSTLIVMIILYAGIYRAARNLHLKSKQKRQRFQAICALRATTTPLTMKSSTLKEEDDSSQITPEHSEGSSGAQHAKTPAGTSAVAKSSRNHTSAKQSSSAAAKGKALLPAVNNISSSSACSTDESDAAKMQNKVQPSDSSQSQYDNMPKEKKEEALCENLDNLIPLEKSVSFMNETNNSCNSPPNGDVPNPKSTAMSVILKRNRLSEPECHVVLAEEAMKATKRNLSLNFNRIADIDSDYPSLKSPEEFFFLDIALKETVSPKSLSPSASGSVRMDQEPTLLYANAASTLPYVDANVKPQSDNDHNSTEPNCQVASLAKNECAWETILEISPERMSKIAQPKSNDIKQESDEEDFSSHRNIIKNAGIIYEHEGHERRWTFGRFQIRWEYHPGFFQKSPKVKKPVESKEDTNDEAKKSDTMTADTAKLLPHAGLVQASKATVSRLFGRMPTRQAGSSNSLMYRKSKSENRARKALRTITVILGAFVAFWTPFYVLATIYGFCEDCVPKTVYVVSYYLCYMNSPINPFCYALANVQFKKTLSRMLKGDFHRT
T2 sequence (E5S5F5 entry or part of it): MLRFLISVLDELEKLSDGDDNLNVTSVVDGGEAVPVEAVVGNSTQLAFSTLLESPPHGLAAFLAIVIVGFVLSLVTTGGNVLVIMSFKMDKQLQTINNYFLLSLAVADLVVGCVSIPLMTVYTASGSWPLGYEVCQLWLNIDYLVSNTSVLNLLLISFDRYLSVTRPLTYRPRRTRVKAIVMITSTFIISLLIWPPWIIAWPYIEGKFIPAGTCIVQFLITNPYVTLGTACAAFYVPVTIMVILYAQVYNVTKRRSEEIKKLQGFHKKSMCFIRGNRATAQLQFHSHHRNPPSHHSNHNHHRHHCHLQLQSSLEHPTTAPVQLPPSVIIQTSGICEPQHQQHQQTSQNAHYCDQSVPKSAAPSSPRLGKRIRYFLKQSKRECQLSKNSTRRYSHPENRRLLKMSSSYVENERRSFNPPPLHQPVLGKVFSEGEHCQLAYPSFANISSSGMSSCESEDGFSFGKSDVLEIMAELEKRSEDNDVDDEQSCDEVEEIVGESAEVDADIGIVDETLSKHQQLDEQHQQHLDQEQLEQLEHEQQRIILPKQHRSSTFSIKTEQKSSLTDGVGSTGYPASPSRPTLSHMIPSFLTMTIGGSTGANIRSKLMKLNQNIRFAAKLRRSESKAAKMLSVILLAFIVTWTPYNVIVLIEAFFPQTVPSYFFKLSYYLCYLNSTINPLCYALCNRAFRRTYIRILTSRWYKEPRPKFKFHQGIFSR
T3 sequence (A0A0V1C1R2 entry or part of it): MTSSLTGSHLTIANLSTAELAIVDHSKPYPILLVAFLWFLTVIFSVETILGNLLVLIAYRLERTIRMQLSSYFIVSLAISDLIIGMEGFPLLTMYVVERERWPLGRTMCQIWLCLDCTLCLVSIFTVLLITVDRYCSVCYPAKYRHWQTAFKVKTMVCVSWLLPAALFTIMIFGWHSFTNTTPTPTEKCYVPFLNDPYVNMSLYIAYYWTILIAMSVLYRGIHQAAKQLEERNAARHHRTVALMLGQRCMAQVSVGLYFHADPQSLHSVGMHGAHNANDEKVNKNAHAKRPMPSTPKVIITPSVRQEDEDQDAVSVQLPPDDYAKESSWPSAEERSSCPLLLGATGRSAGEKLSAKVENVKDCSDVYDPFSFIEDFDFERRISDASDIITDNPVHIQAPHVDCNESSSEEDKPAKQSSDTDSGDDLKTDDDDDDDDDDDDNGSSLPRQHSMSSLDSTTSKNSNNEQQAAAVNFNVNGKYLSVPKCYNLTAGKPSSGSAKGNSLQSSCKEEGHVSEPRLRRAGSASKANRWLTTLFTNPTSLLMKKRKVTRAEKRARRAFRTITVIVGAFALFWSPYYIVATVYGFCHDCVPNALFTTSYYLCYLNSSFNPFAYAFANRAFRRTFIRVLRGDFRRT

SMILES	nH (Hill coefficient), agonist, TsGAR-2 (TsGAR-2 [1]; [7])	agonist activity on TsGAR-2 (in words) (TsGAR-2 [1]; co-expressed with Gα15(16))	EC50 (TsGAR-3 [2])	nH (Hill coefficient), agonist, TsGAR-3 (TsGAR-3 [2]; without Gα15(16))	agonist activity on TsGAR-3 (in words) (TsGAR-3 [2]; without Gα15(16))	nH (Hill coefficient), agonist, TsGAR-1 (TsGAR-1 [3]; [7])	agonist activity on TsGAR-1 (in words) (TsGAR-1 [3]; co-expressed with Gα15(16))	EC50 (TsGAR-1 [3])	IC50 (TsGAR-3 [4])	nH (Hill coefficient), antagonist, TsGAR-3 (TsGAR-3 [4])	antagonist effect on TsGAR-3 (in words) (TsGAR-3 [4])	antagonist effect on TsGAR-2 (in words) (TsGAR-2 [5])	antagonist effect on TsGAR-1 (in words) (TsGAR-1 [6])	EC50 (TsGAR-2 [1])	also measured
CC(=O)OCC[N+](C)(C)C [Acetylcholine, acetylcholine chloride]	0.5883	potent activator	400 ± 73.1 nM	0.7319	potent activator	0.8621	potent activator	–	–	–	–	–	–	–	EC50 (TsGAR-2 [1]; agonist, CHO cells, co-expressed with Gα15(16), SE of three biological replications, read-out: EC50 ± SE (nM), TsGAR-2): 14.7 ± 10.8 nM; ACh-mediated calcium mobilization via TsGAR-2 (in words) (TsGAR-2 [1]; co-expressed with Gα15(16)): dose-dependent activity; ACh-mediated calcium mobilization via TsGAR-2 (in words) (TsGAR-2 [1]; [8]): effective responses; ACh-mediated calcium mobilization via TsGAR-3 (in words) (TsGAR-3 [2]; co-expressed with Gα15(16)): dose-dependent activity; ACh-mediated calcium mobilization via TsGAR-3 (in words) (TsGAR-3 [2]; [8]): effective responses; EC50 (TsGAR-1 [3]; agonist, CHO cells, co-expressed with Gα15(16), SE of three biological replications, read-out: EC50 ± SE (nM), TsGAR-1): 194 ± 18.1 nM; ACh-mediated calcium mobilization via TsGAR-1 (in words) (TsGAR-1 [3]; co-expressed with Gα15(16)): dose-dependent activity; ACh-mediated calcium mobilization via TsGAR-1 (in words) (TsGAR-1 [3]; [8]): effective responses
COC(=O)C1=CCCN(C)C1 [Arecoline, arecoline hydrobromide]	–	did not detect any arecoline-triggered activation	457 ± 156 nM	1.199	partial agonist	1.054	partial agonist	4630 ± 841 nM	–	–	–	–	–	–	agonist activity on A. suum GAR-1 (in words) (A. suum GAR-1): effectively activate
CN1[C@@H]2CC[C@H]1C[C@@H](OC(=O)C(CO)c1ccccc1)C2 (stereo partly drawn) [Atropine, atropine]	–	–	–	–	–	–	–	–	222 ± 42.7 nM	−0.8748	effectively inhibited	not effective in blocking	not effective in blocking; also recorded: totally ineffective	–	antagonist effect on T. castaneum mAChR-B (in words) (T. castaneum mAChR-B): remained unaffected; antagonist effect on D. melanogaster mAChR-B (in words) (D. melanogaster mAChR-B): remained unaffected; antagonist effect on A. suum GAR-1 (in words) (A. suum GAR-1): effective in inhibiting; also recorded: effectively blocked; antagonist effect on C. elegans GAR-1 (in words) (C. elegans GAR-1): effective in inhibiting; also recorded: effectively blocked
CC(C[N+](C)(C)C)OC(N)=O (stereo not drawn) [Bethanechol, bethanechol chloride]	0.8738	low potency	> 10000 nM	1.390	low potency	0.9289	low potency	> 10000 nM	–	–	–	–	–	> 10000 nM	agonist activity on A. suum GAR-1 (in words) (A. suum GAR-1): agonistic effect was shown
C[N+](C)(C)CCOC(N)=O [Carbachol, carbamoylcholine chloride]	0.9531	–	1930 ± 256 nM	0.9117	–	0.8693	–	2050 ± 235 nM	–	–	–	–	–	2670 ± 508 nM	–
C[C@@H]1O[C@H](C[N+](C)(C)C)C[C@H]1O [Muscarine, (+)-muscarine chloride]	0.8666	low affinity	2500 ± 960 nM	0.7106	potent agonist	–	no	–	–	–	–	–	–	> 10000 nM	sensitivity of T. castaneum mAChR-B relative to mAChR-A (T. castaneum mAChR-B; [9]): ~100 times; sensitivity of D. melanogaster mAChR-B relative to mAChR-A (D. melanogaster mAChR-B; [9]): about 1000 times
CCCOC(C(=O)OC1CCN(C)CC1)(c1ccccc1)c1ccccc1 [Propiverine, propiverine hydrochloride]	–	–	–	–	–	–	–	–	> 10000 nM	−0.6649	partially blocked	partially blocked	partially blocked	–	antagonist effect on C. elegans GAR-2 (in words) (C. elegans GAR-2): largely no effect; antagonist effect on A. suum GAR-1 (in words) (A. suum GAR-1): largely no effect; antagonist effect on C. elegans GAR-1 (in words) (C. elegans GAR-1): largely no effect; IC50 (TsGAR-2 [5]; antagonist vs 10 μM ACh, read-out: IC50 ± SE (nM), TsGAR-2): > 10000 nM; nH (Hill coefficient), antagonist, TsGAR-2 (TsGAR-2 [5]; antagonist): −3.002; IC50 (TsGAR-1 [6]; antagonist vs 10 μM ACh, read-out: IC50 ± SE (nM), TsGAR-1): > 10000 nM
CN1[C@@H]2C[C@@H](OC(=O)[C@H](CO)c3ccccc3)C[C@H]1[C@@H]1O[C@@H]12 [Scopolamine, (−)-scopolamine hydrobromide trihydrate]	–	–	–	–	–	–	–	–	27.3 ± 6.3 nM	−1.151	effectively inhibited	not effective in blocking	not effective in blocking	–	antagonist effect on T. castaneum mAChR-B (in words) (T. castaneum mAChR-B): remained unaffected; antagonist effect on D. melanogaster mAChR-B (in words) (D. melanogaster mAChR-B): remained unaffected
